In patent US11155586B2, “Cystine knot scaffold platform” (Genentech, Inc., priority 2015, dated 2021):
Positions of bridges follow the written chain, without caps; N, C: chain ends. Residues, ends and D or L forms follow the SMILES beside them.

Target: T1, hVEGF(8-109) (Homo sapiens, UniProt P15692)
T1 construct: hVEGF(8-109) or BSA were coated on 384-well MAXISORP™ immunoplates
T1 sequence (P15692 214-315): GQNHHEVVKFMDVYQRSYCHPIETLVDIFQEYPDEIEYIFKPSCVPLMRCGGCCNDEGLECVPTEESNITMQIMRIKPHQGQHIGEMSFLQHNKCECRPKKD
Assay: Spot phage ELISA
Assay type: binding
Description: After four rounds of binding selection, individual phage clones were picked and inoculated into 450 μl 2YT media containing 50 µg/ml Carbenecillin and M13-KO7 helper phage in 96-well blocks, which were grown at 37° C. overnight. The supernatant was analyzed with spot phage ELISA as follows: hVEGF(8-109) or BSA were coated on 384-well MAXISORP™ immunoplates and phage supernatant diluted (1:3) with PBT buffer was added to the wells. The plates were washed and bound phage was detected with anti-M13-HRP followed by TMB substrate. In these assays, phage binding to BSA alone was tested in parallel to assess background binding. Clones whose binding signals for hVEGF-A (8-109) were more than 3 times higher than to BSA (background) were considered positive. Positive clones were subjected to DNA sequence analysis.

[1] = VEGF_CKP9 Loop1/Loop5 affinity-matured variants, Table 24
[2] = loop 2 variants based on VEGF_CKP9.63 framework, Table 27

Molecule: CC(C)C[C@@H]1NC(=O)[C@@H]2CSSC[C@H](NC(=O)CNC(=O)[C@H](Cc3c[nH]c4ccccc34)NC(=O)[C@H](Cc3ccccc3)NC(=O)[C@@H]3CCCN3C(=O)[C@H](CCC(N)=O)NC(=O)[C@H]([C@@H](C)O)NC(=O)[C@H](CCCNC(=N)N)NC(=O)[C@H](CCC(N)=O)NC(=O)[C@@H](NC(=O)CN)CSSC[C@@H](C(=O)N[C@H](C(=O)N[C@H]3CSSC[C@@H](C(=O)NCC(=O)O)NC(=O)[C@H](CO)NC(=O)[C@H](CCC(N)=O)NC(=O)[C@H](Cc4ccc(O)cc4)NC(=O)[C@H](Cc4c[nH]c5ccccc45)NC(=O)[C@H](CCCNC(=N)N)NC3=O)C(C)C)NC(=O)CNC(=O)[C@H](C)NC1=O)C(=O)N[C@@H](CCCCN)C(=O)N[C@@H](CCC(N)=O)C(=O)N[C@@H](CC(=O)O)C(=O)N[C@@H](CO)C(=O)N[C@@H](CC(=O)O)C(=O)N2 [VEGF_CKP9.22] (H-GCQRTQPFWGCKQDSDCLAGCVCRWYQSCG-OH; disulfide 2-21, 11-17, 23-29 (inferred); N-terminus and C-terminus assumed)
- S/N (signal to noise ratio as compared to BSA control) (Table 24): 17.2
- ELISA [1]: 1.2

Molecule: CC[C@H](C)[C@@H]1NC(=O)[C@H](CC(=O)O)NC(=O)[C@H](Cc2c[nH]cn2)NC(=O)[C@@H]2CCCN2C(=O)[C@H](CCC(=O)O)NC(=O)[C@H](Cc2c[nH]c3ccccc23)NC(=O)[C@@H]2CCCN2C(=O)[C@H]([C@@H](C)O)NC(=O)[C@H](CCCNC(=N)N)NC(=O)[C@@H](NC(=O)CN)CSSC[C@@H]2NC(=O)CNC(=O)[C@H](C)NC(=O)[C@H](CC(C)C)NC(=O)[C@@H]3CSSC[C@@H](C(=O)NCC(=O)O)NC(=O)[C@H](Cc4ccccc4)NC(=O)CNC(=O)[C@H](CC(N)=O)NC(=O)[C@@H]4CCCN4C(=O)CNC(=O)[C@H](CSSC[C@H](NC(=O)[C@H]([C@@H](C)O)NC1=O)C(=O)N[C@@H](CCCCN)C(=O)N[C@@H](CCC(N)=O)C(=O)N[C@@H](CC(=O)O)C(=O)N[C@@H](CO)C(=O)N[C@@H](CC(=O)O)C(=O)N3)NC(=O)[C@H](C(C)C)NC2=O [VEGF_CKP11] (H-GCRTPWEPHDITCKQDSDCLAGCVCGPNGFCG-OH; disulfide 2-23, 13-25, 19-31; N-terminus and C-terminus assumed)
- S/N (signal to noise ratio as compared to BSA control) (Table 19): 57.5
- ELISA (spot phage ELISA signal, EETI-II-based binders against hVEGF-A, Table 19): 4.1

Molecule: GCQLMQPFWGCKQDSDCLAGCVCHWYQSCG [VEGF_CKP9.L5.18]
- S/N (signal to noise ratio as compared to BSA control) (Table 23): 20.4
- ELISA (VEGF_CKP9 Loop5 affinity-matured variants, Table 23): 1.6

Molecule: CC(C)C[C@@H]1NC(=O)[C@@H]2CSSC[C@H](NC(=O)CNC(=O)[C@H](Cc3c[nH]c4ccccc34)NC(=O)[C@H](Cc3ccccc3)NC(=O)[C@@H]3CCCN3C(=O)[C@H](CCC(N)=O)NC(=O)[C@H](CC(C)C)NC(=O)[C@H](C(C)C)NC(=O)[C@H](CC(=O)O)NC(=O)[C@@H](NC(=O)CN)CSSC[C@@H](C(=O)N[C@H](C(=O)N[C@H]3CSSC[C@@H](C(=O)NCC(=O)O)NC(=O)[C@H](CO)NC(=O)[C@H](CCC(N)=O)NC(=O)[C@H](Cc4ccc(O)cc4)NC(=O)[C@H](Cc4c[nH]c5ccccc45)NC(=O)[C@H](Cc4c[nH]cn4)NC3=O)C(C)C)NC(=O)CNC(=O)[C@H](C)NC1=O)C(=O)N[C@@H](CCCCN)C(=O)N[C@@H](CCC(N)=O)C(=O)N[C@@H](CC(=O)O)C(=O)N[C@@H](CO)C(=O)N[C@@H](CC(=O)O)C(=O)N2 [VEGF_CKP9.2] (H-GCDVLQPFWGCKQDSDCLAGCVCHWYQSCG-OH; disulfide 2-21, 11-17, 23-29 (inferred); N-terminus and C-terminus assumed)
- S/N (signal to noise ratio as compared to BSA control) (Table 24): 31.1
- ELISA [1]: 2.4

Molecule: GCDVMQPYWGCDLNYECLAGCVCHWYNSCG [VEGF_CKP9.63.87]
- S/N (signal to noise ratio as compared to BSA control) (Table 27): 8.6
- ELISA [2]: 0.9

Molecule: GCDVMQPYWGCGVDLSCLAGCVCHWYNSCG [VEGF_CKP9.63.3]
- S/N (signal to noise ratio as compared to BSA control) (Table 27): 20.7
- ELISA [2]: 1.7
